In ChEMBL document CHEMBL3864166, “4-Carbonyl-2,6-dibenzylidenecyclohexanone derivatives as small molecule inhibitors of STAT3 signaling pathway” (Bioorg Med Chem, 2016):
The source made the active and inactive calls. The calls are words filed in the database; no cut-off is given here.

Columns and labels:
[1] = Antiproliferative activity against human MDA-MB-231 cells after 48 hrs by MTT assay; assay type: functional, cell-based; details: MDA-MB-231, 48 h
[2] = Antiproliferative activity against human A549 cells after 48 hrs by MTT assay; assay type: functional, cell-based; details: A549, 48 h
[3] = Antiproliferative activity against human DU145 cells after 48 hrs by MTT assay; assay type: functional, cell-based; details: DU-145, 48 h
DU-145 = experiment: Selectivity ratio of IC50 for human DU145 cells to IC50 for human MDA-MB-231 cells; assay type: functional
[4] = Cytotoxicity against human HL-7702 cells assessed as reduction in cell viability after 48 hrs by MTT assay; assay type: toxicity, cell-based; details: l02, 48 h
A549 [5] = experiment: Selectivity ratio of IC50 for human DU145 cells to IC50 for human A549 cells; assay type: functional
[6] = target: T1, Signal transducer and activator of transcription 3 (Homo sapiens, UniProt P40763); experiment: Inhibition of STAT3 phosphorylation at tyr705 in human MDA-MB-231 cells after 24 hrs by Western blot analysisis; assay type: cell-based
T1 sequence (P40763 whole entry): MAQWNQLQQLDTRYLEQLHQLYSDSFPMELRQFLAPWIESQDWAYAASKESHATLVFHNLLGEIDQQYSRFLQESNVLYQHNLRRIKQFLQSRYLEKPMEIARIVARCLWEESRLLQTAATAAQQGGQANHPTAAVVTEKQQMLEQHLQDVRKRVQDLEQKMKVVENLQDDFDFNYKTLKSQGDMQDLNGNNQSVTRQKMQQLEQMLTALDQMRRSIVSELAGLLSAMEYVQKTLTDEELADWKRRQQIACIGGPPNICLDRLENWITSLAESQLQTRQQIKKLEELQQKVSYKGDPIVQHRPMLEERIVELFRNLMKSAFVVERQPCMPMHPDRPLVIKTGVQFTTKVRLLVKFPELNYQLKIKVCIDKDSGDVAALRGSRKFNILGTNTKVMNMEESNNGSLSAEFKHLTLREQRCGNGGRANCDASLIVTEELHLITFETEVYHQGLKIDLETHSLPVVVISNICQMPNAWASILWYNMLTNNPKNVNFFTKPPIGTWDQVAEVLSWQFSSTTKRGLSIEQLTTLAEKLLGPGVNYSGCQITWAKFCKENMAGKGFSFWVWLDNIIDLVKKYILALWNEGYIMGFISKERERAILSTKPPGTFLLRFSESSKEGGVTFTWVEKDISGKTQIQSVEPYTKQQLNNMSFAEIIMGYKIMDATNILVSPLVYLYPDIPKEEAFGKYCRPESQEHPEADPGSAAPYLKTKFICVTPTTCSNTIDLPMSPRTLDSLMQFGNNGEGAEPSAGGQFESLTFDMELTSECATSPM

[7] = target: T1, Signal transducer and activator of transcription 3; experiment: Inhibition of STAT3 phosphorylation at tyr705 in human A549 cells after 24 hrs by Western blot analysisis; assay type: cell-based
[8] = target: T1, Signal transducer and activator of transcription 3; experiment: Inhibition of STAT3 phosphorylation at tyr705 in human MDA-MB-231 cells at 4 uM after 24 hrs by Western blot analysisis; assay type: cell-based
[9] = target: T1, Signal transducer and activator of transcription 3; experiment: Inhibition of STAT3 phosphorylation at tyr705 in human A549 cells at 4 uM after 24 hrs by Western blot analysisis; assay type: cell-based
[10] = Effect on total STAT3 protein expression in human MDA-MB-231 cells at 1 to 4 uM after 24 hrs by Western blot analysis; assay type: ADME, cell-based; details: mda-mb-231, 24 h
[11] = Effect on total STAT3 protein expression in human A549 cells at 1 to 4 uM after 24 hrs by Western blot analysis; assay type: ADME, cell-based; details: a549, 24 h
[12] = target: T1, Signal transducer and activator of transcription 3; experiment: Inhibition of IL6-stimulated STAT3 phosphorylation at Tyr-705 residue in human MDA-MB-231 cells at 1 to 4 uM preincubated for 2 hrs followed by IL6 stimulation measured after 30 mins by Western blot analysisis; assay type: cell-based
MDA-MB-231 = experiment: Induction of apoptosis in human MDA-MB-231 cells assessed increase in cleaved PARP levels at 1 to 4 uM after 24 hrs by Western blot analysisis; assay type: functional, cell-based
A549 [13] = experiment: Induction of apoptosis in human A549 cells assessed increase in cleaved PARP levels up to 4 uM after 24 hrs by Western blot analysisis; assay type: functional, cell-based
[14] = target: T1, Signal transducer and activator of transcription 3; experiment: Binding affinity to STAT3 (unknown origin) expressed in Escherichia coli expression system by SPR assay
[15] = Downregulation of IL6-stimulated STAT3 expression in human MDA-MB-231 cells at 1 to 4 uM preincubated for 2 hrs followed by IL6 stimulation measured after 30 mins by Western blot analysisis; assay type: functional, cell-based

SMILES | IC50 [1] [µM] | IC50 [2] [µM] | IC50 [3] [µM] | Ratio IC50 (DU-145) | further results
CCN(CC)CCNC(=O)C1C/C(=C\c2ccccc2)C(=O)/C(=C/c2ccccc2)C1 (centres undefined) | 0.63 | 3.93 | 4.41 | 7 | 
COc1ccc(/C=C2\CC(C(=O)Nc3ccc(OC)cc3)C/C(=C\c3ccc(OC)cc3)C2=O)cc1 (centres undefined) | > 20 | > 20 | > 20 |  | 
COc1ccc(/C=C2\CC(C(=O)Nc3ccccc3)C/C(=C\c3ccc(OC)cc3)C2=O)cc1 (centres undefined) | > 20 | > 20 | > 20 |  | 
CN1CCN(c2cccc(NC(=O)C3C/C(=C\c4ccc(F)cc4)C(=O)/C(=C/c4ccc(F)cc4)C3)c2)CC1 (centres undefined) | 0.78 | 3.84 | 5.96 | 7.6 | Activity [4]: Non-Toxic
COc1ccc(/C=C2\CC(C(=O)N3CCN(C)CC3)C/C(=C\c3ccc(OC)cc3)C2=O)cc1 (centres undefined) | 5.46 | 9.07 | 17.6 | 3.2 | 
COc1ccc(/C=C2\CC(C(=O)Nc3ccc(N4CCN(C)CC4)cc3)C/C(=C\c3ccc(OC)cc3)C2=O)cc1 (centres undefined) | 3.34 | 3.09 | 7.03 |  | Ratio IC50 (A549 [5]): 2.1
COc1ccc(/C=C2\CC(C(=O)Nc3cccc(N4CCN(C)CC4)c3)C/C(=C\c3ccc(OC)c(O)c3)C2=O)cc1O (centres undefined) | 1.6 | 7.53 | 8.29 | 5.2 | 
CCN(CC)CCNC(=O)C1C/C(=C\c2ccc(F)cc2)C(=O)/C(=C/c2ccc(F)cc2)C1 (centres undefined) | 0.64 | 1.88 | 1.63 | 2.9 | Activity [4]: Non-Toxic; inhibition [6]: Dose-dependent effect; inhibition [7]: Dose-dependent effect; inhibition [8]: 100%; inhibition [9]: 100%; Activity [10]: Non-Toxic; Activity [11]: Non-Toxic; inhibition [12]: Active; Activity (MDA-MB-231): Active; Activity (A549 [13]): Active; Kd [14]: 7.93 µM; Activity [15]: Active
CCN(CC)CCNC(=O)C1C/C(=C\c2ccc(OC)c(O)c2)C(=O)/C(=C/c2ccc(OC)c(O)c2)C1 (centres undefined) | 6.87 | 8.13 | > 20 |  | 
CN1CCN(c2ccc(NC(=O)C3C/C(=C\c4ccc(F)cc4)C(=O)/C(=C/c4ccc(F)cc4)C3)cc2)CC1 (centres undefined) | 0.59 | 3.17 | 2.63 | 5.4 | Activity [4]: Non-Toxic
COc1ccc(/C=C2\CC(C(=O)Nc3cccc(N4CCN(C)CC4)c3)C/C(=C\c3ccc(OC)cc3)C2=O)cc1 (centres undefined) | 3.39 | 3.69 | 10.1 | 3 | 
COc1ccc(/C=C2\CC(C(=O)N3CCN(C(C)=O)CC3)C/C(=C\c3ccc(OC)cc3)C2=O)cc1 (centres undefined) | 5.84 | 8.02 | 17.4 | 3 | 
COc1ccc(/C=C2\CC(C(=O)Nc3ccc(N4CCOCC4)cc3)C/C(=C\c3ccc(OC)cc3)C2=O)cc1 (centres undefined) | 4.21 | 2.76 | 15.6 |  | Ratio IC50 (A549 [5]): 5.7
COc1ccc(/C=C2\CC(C(=O)NCCO)C/C(=C\c3ccc(OC)cc3)C2=O)cc1 (centres undefined) | 11.7 | 13.7 | > 20 |  | 
COc1ccc(/C=C2\CC(C(=O)NC(C)C)C/C(=C\c3ccc(OC)cc3)C2=O)cc1 (centres undefined) | > 20 | 15.1 | > 20 |  | 
CCN(CC)CCNC(=O)C1C/C(=C\c2ccc(OC)cc2)C(=O)/C(=C/c2ccc(OC)cc2)C1 (centres undefined) | 3.78 | 6.47 | 6.89 | 1.8 | 
COc1cc(/C=C/C(=O)CC(=O)/C=C/c2ccc(O)c(OC)c2)ccc1O [CURCUMIN] | 24.5 | 15.1 | 44.7 |  | Ratio IC50 (A549 [5]): 3
CN1CCN(c2cccc(NC(=O)C3C/C(=C\c4ccccc4)C(=O)/C(=C/c4ccccc4)C3)c2)CC1 (centres undefined) | 1.79 | 5.96 | 8.69 | 4.9 | 
COc1ccc(/C=C2\CC(C(=O)N3CCOCC3)C/C(=C\c3ccc(OC)cc3)C2=O)cc1 (centres undefined) | 11.2 | 16.2 | > 20 |  | 
